We go through 1 substance from US8551711B2, “Screening method of glutathione-increasing substance” (Teikyo University, priority 2006, dated 2013).

Experiment [1] deals with GTRAP3-18 protein. Kind of experiment: Western blot of GTRAP3-18 protein expression in HEK293 cell. Particulars: ratio to actin, oligonucleotide transiently introduced or 250 μM MeβCD, vs control (sense oligonucleotide). Format: cell-based. The method, then:
(§1) FIG. 1 Results obtained by examining influences of a GTRAP3-18 antisense oligonucleotide and methyl-β-cyclodextrin (MeβCD) against the expression of a GTRAP3-18 protein of an HEK293 cell. A GTRAP3-18 sense oligonucleotide (GTRAP3-18(S)) or an antisense oligonucleotide (GTRAP3-18(As)) was introduced into an HEK293 cell, or 250 μM of methyl-β-cyclodextrin (MeβCD) was made to act thereon. A) After homogenizing the cell, western blot was performed using an anti-EAAC1 antibody, an anti-GTRAP3-18 antibody and an anti-actin antibody. B) The results of the western blot were digitalized and indicated in terms of a ratio to actin. GTRAP3-18 decreased by the introduction of the GTRAP3-18 antisense oligonucleotide, and GTRAP3-18 increased by MeβCD.
(§2) By transiently introducing an antisense oligonucleotide of GTRAP3-18 into an HEK293 cell, the amount of GTRAP3-18 in the cell was decreased (FIG. 1). Next, the amount of intracellular glutathione was assayed by ThioGlo-1 (manufactured by Calbiochem). […] of the amount of GTRAP3-18 was confirmed by a western blot method. A cell into which a sense oligonucleotide had been introduced was used as a control group.
On the other hand, it was confirmed by a western blot method that when methyl-β-cyclodextrin (MeβCD) was added to HEK293 cell, the amount of GTRAP3-18 increased as compared with the control group (FIG. 1).
On the technique in general: In western blotting, separated proteins are transferred to a membrane and probed.

The next experiment deals with EAAC1. Kind of experiment: Western blot of EAAC1 amount in HEK293 cell. It is filed as cell-based. Particulars: ratio to actin, oligonucleotide introduced or 250 μM MeβCD. The method, then:
as §1

Experiment [2] concerns intracellular glutathione (GSH). The experiment in a line: Amount of intracellular glutathione in HEK293 cell assayed by ThioGlo-1. It is filed as cell-based. Particulars: conditions of FIG. 1, vs control group. As to the method: FIG. 2 The amount of intracellular glutathione (GSH) was quantitatively determined under the conditions of FIG. 1. Glutathione increased by the introduction of the GTRAP3-18 antisense oligonucleotide, and glutathione decreased by MeβCD.
as §2

In experiment [3] the test system is GTRAP3-18 protein. Kind of experiment: Western blot of GTRAP3-18 protein in mouse hippocampus after intraventricular administration. Particulars: administered in cerebral ventricle (siRNA 10 μg/h, after one week), vs control (buffer). It is filed as in vivo. The method, then: FIG. 3 Results obtained by examining influences of GTRAP3-18 siRNA against the expression of a GTRAP3-18 protein of a mouse hippocampus cell. A) After homogenizing the cell, western blot was performed using an anti-GTRAP3-18 antibody. B) The results of the western blot were digitalized and indicated in terms of a ratio to the buffer administration. The amount of GTRAP3-18 decreased by the introduction of GTRAP3-18 siRNA.
(§3) FIG. 6 Results obtained by examining influences of methyl-β-cyclodextrin (MeβCD) against the expression of a GTRAP3-18 protein of mouse hippocampus. A) After homogenizing the cell, western blot was performed using an anti-EAAC1 antibody, an anti-GTRAP3-18 antibody and an anti-actin antibody. B) The results of the western blot were digitalized and indicated in terms of a ratio to actin. GTRAP3-18 increased by MeβCD.
(§4) siRNA against GTRAP3-18 was administered (10 μg/h) in a cerebral ventricle of a mouse.
On the other hand, when methyl-β-cyclodextrin (MeβCD) was administered in a cerebral ventricle of a mouse, the amount of GTRAP3-18 in the hippocampus cell increased as compared with the control group (FIG. 6).

Another experiment deals with EAAC1 protein. Kind of experiment: Western blot of EAAC1 protein in mouse hippocampus after intraventricular administration. Format: in vivo. Particulars: administered in cerebral ventricle, vs control (buffer). As to the method: FIG. 4 Results obtained by examining influences of EAAC1 siRNA against the expression of an EAAC1 protein of a mouse hippocampus cell. A) After homogenizing the cell, western blot was performed using an anti-EAAC1 antibody. B) The results of the western blot were digitalized and indicated in terms of a ratio to the buffer administration. The amount of EAAC1 decreased by the introduction of EAAC1 siRNA.
as §3, §4

The subject of experiment [4] is glutathione in hippocampus. The experiment in a line: Amount of glutathione in mouse hippocampus (GSH reductase/DTNB, absorbance at 412 nm). Format: in vivo. Particulars: administered in cerebral ventricle, corrected by tissue weight, vs control. From the text: FIG. 5 Results obtained by quantitatively determining the amount of glutathione in hippocampus under the conditions of FIGS. 3 and 4. The amount of glutathione of hippocampus decreased by the intraventricular administration of EAAC1 siRNA, whereas the amount of glutathione increased by GTRAP3-18 siRNA.
FIG. 7 The amount of intracellular glutathione (GSH) was quantitatively determined under the conditions of FIG. 6. Glutathione decreased by MeβCD.
Next, after decreasing the amount of GTRAP3-18 or EAAC1 in the hippocampus cell, the amount of glutathione was assayed. That is, an extract from the hippocampus tissue was mixed with a reaction solution containing EDTA (ethylenediaminetetraacetic acid), GSH reductase, DTNB (5,5′-ditiobis-nitrobenzoic acid) and NADPH, and an absorbance at 412 nm was measured. After determining a concentration by using an absorbance of a GSH standard solution, it was corrected by a tissue weight.

The mark [5] stands for this setting: listed as methyl-β-cyclodextrin (MeβCD).

For the substance methyl-β-cyclodextrin [MeβCD], the “amount of GTRAP3-18 in the cell” value in the experiment with GTRAP3-18 protein [1] was “increased”. Further, the “amount of EAAC1” value in the experiment with EAAC1 is reported as “did not change”. The figures for the “amount of intracellular glutathione (GSH)” value in experiment [2] and in experiment [2] (setting [5]) were “decreased” and “significantly decreased”, respectively. Besides, the “amount of GTRAP3-18 in hippocampus cell” value in the experiment with GTRAP3-18 protein [3] was “increased”. The “amount of EAAC1 in hippocampus cell” value with EAAC1 protein is listed as “did not change”. The “amount of glutathione in hippocampus” value in experiment [4] is “decreased”; in experiment [4] (setting [5]), “significantly decreased”.
